Reference: PubChem BioAssay (NCI)
Several values for one entry are separate records, joined by “and”; a condition that tells them apart may be missing. Identical values can stand only once.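 Briefly, cells in 96-well plates were exposed to five compound concentrations for 48 h, and endpoints were estimated by linear interpolation. GI50 marks 50% less growth. TGI denotes the concentration required for complete inhibition of growth.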

Columns and labels:
Assay in all cases: NCI tumour cell line growth inhibition, 48 h
[1] = system: A498 renal
[2] = system: HL-60(TB) leukemia
[3] = system: NCI-H522 lung
[4] = system: OVCAR-5 ovarian
[5] = system: PC-3 prostate
[6] = system: RPMI-8226 leukemia
[7] = system: SK-MEL-5 melanoma
[8] = system: SN12C renal
[9] = system: SR leukemia
[10] = system: U251 CNS

O=c1[nH]nc(Cc2ccc([N+](=O)[O-])cc2)[nH]1
TGI [1]: > 100 µM | TGI [2]: > 100 µM | TGI [3]: > 100 µM | TGI [4]: > 100 µM | TGI [5]: > 100 µM | TGI [6]: > 100 µM | TGI [7]: > 100 µM | TGI [8]: > 100 µM | TGI [9]: > 100 µM | TGI [10]: > 100 µM

CC(C)(CN1CCCCC1)C(=O)CC(SCCS(=O)(=O)O)c1ccc(Cl)c(Cl)c1 (centres undefined)
TGI [1]: 12.9 µM | TGI [2]: 5.63 µM | TGI [3]: 5.59 µM | TGI [4]: 14.6 µM | TGI [5]: 17 µM | TGI [6]: 7.03 µM | TGI [7]: 21.1 µM | TGI [9]: 6.38 µM | TGI [10]: 19.3 µM

OCC1=C[C@@](COCc2ccccc2)(OCc2ccccc2)[C@@H](OCc2ccccc2)[C@@H]1OCc1ccccc1
TGI [1]: 31.8 µM | TGI [2]: 65.9 µM | TGI [3]: 51 µM | TGI [4]: 60.3 µM | TGI [5]: 55.5 µM | TGI [6]: 7.33 µM | TGI [7]: 30.5 µM | TGI [8]: 10.3 µM | TGI [9]: 33.4 µM | TGI [10]: 25.6 µM

CC(CN(C)C)C(O)(c1ccccc1)c1ccccc1 (centres undefined)
TGI [1]: > 100 µM | TGI [2]: > 100 µM | TGI [3]: > 100 µM | TGI [4]: > 100 µM | TGI [5]: > 100 µM | TGI [6]: > 100 µM | TGI [7]: > 100 µM | TGI [8]: > 100 µM | TGI [9]: > 100 µM | TGI [10]: > 100 µM

Cc1nc(-c2ccc(Cl)cc2)cn2c1nc1ccccc12
TGI [1]: > 100 µM | TGI [2]: > 31.6 µM | TGI [3]: > 100 µM | TGI [4]: > 100 µM | TGI [5]: > 100 µM | TGI [6]: > 100 µM | TGI [7]: > 100 µM | TGI [8]: > 100 µM | TGI [9]: > 100 µM | TGI [10]: > 100 µM

CNc1ccc([N+](=O)[O-])cc1C(=O)N1CCC[C@H]1CO
TGI [1]: > 100 µM | TGI [2]: > 100 µM | TGI [3]: > 100 µM | TGI [4]: > 100 µM | TGI [5]: > 100 µM | TGI [6]: > 100 µM | TGI [7]: > 100 µM | TGI [8]: > 100 µM | TGI [9]: > 100 µM | TGI [10]: > 100 µM

CCOc1cc(C=Nc2ccc(Oc3ccc(Cl)cc3)c(Cl)c2)ccc1O
TGI [1]: 36.6 µM | TGI [2]: 57.4 µM | TGI [3]: 31.9 µM | TGI [4]: 79.7 µM | TGI [5]: 88.7 µM | TGI [6]: 82.8 µM | TGI [7]: 52.9 µM | TGI [8]: 38.8 µM | TGI [9]: 57 µM | TGI [10]: 44.4 µM

C=CC(=O)N1C/C(=C\c2ccc(F)cc2)C(=O)/C(=C/c2ccc(F)cc2)C1
TGI [1]: 1.48 µM | TGI [2]: > 100 µM | TGI [3]: 1.94 µM | TGI [4]: 2.7 µM | TGI [5]: 1.79 µM | TGI [7]: 3.35 µM | TGI [8]: 0.936 µM | TGI [9]: > 100 µM | TGI [10]: 2.28 µM

O=C1C(=O)C(CCCO)(CCCO)CCCCCCCCC1(CCCO)CCCO
TGI [1]: > 100 µM | TGI [2]: 29.9 µM | TGI [3]: > 100 µM | TGI [4]: > 100 µM | TGI [5]: > 100 µM | TGI [6]: 32 µM | TGI [7]: > 100 µM | TGI [8]: > 100 µM | TGI [9]: > 100 µM | TGI [10]: > 100 µM

CCSc1nn(-c2c3ccccc3nc3ccccc23)c(=S)s1
TGI [1]: > 100 µM | TGI [2]: > 100 µM | TGI [3]: > 100 µM | TGI [4]: > 100 µM | TGI [5]: > 100 µM | TGI [6]: > 100 µM | TGI [7]: > 100 µM | TGI [8]: > 100 µM | TGI [9]: > 100 µM | TGI [10]: > 100 µM

Clc1cccc(Cl)c1C1ON=C(c2ccccc2)N1C12CC3CC(CC(C3)C1)C2 (centres undefined)
TGI [1]: > 100 µM | TGI [2]: 8.72 µM | TGI [3]: > 100 µM | TGI [4]: > 100 µM | TGI [5]: 29.9 µM | TGI [6]: 47.8 µM | TGI [7]: 12.1 µM | TGI [8]: > 100 µM | TGI [9]: > 100 µM | TGI [10]: > 100 µM

Oc1cc(Br)cc2cc(Br)cnc12
TGI [1]: 24.2 µM | TGI [2]: 0.654 µM | TGI [3]: 8.2 µM | TGI [5]: > 100 µM | TGI [6]: 30.2 µM | TGI [7]: 31.7 µM | TGI [8]: 73 µM | TGI [9]: 11 µM

Nc1ncnc2c(C3OC(CO)C(O)C3O)c[nH]c12 (centres undefined)
TGI [1]: 0.113 µM and 0.0973 µM | GI50 [2]: 0.000721 µM | TGI [3]: 0.0601 µM and 0.0389 µM | GI50 [4]: < 0.0119 µM | TGI [4]: 0.657 µM and 0.675 µM | TGI [5]: 0.128 µM and 0.324 µM | GI50 [7]: 0.0187 µM | TGI [8]: 0.0946 µM and 0.537 µM | TGI [9]: 0.272 µM

Cc1ccc2c3ccc4c(c3n(C)c2c1)C(=O)C=CC4=O
TGI [1]: > 10 µM | TGI [2]: 3.9 µM | TGI [3]: 4.75 µM | TGI [4]: > 10 µM | TGI [5]: > 10 µM | TGI [6]: 5.67 µM | TGI [7]: > 10 µM | TGI [8]: > 10 µM | TGI [9]: 4.73 µM | TGI [10]: > 10 µM

Cn1cnc([N+](=O)[O-])c1Sc1nncc2[nH]cnc12
TGI [1]: > 100 µM | TGI [2]: > 100 µM | TGI [3]: > 100 µM | TGI [4]: > 100 µM | TGI [5]: > 100 µM | TGI [6]: > 100 µM | TGI [7]: > 100 µM | TGI [8]: > 100 µM | TGI [9]: > 100 µM | TGI [10]: > 100 µM

O=[N+]([O-])c1ccc(-c2nc3ccccc3o2)cc1
TGI [1]: > 100 µM | TGI [3]: > 100 µM | TGI [4]: > 100 µM | TGI [5]: > 100 µM | TGI [6]: > 100 µM | TGI [7]: > 100 µM | TGI [8]: > 100 µM | TGI [9]: > 100 µM | TGI [10]: > 100 µM

Cc1nc2ccccc2n1CCc1nc2ccccc2[nH]1
TGI [1]: > 100 µM | TGI [2]: > 100 µM | TGI [3]: > 100 µM | TGI [4]: > 100 µM | TGI [5]: > 100 µM | TGI [6]: > 100 µM | TGI [7]: > 100 µM | TGI [8]: > 100 µM | TGI [9]: > 100 µM | TGI [10]: > 100 µM
